According to ChEMBL document CHEMBL4043087 (J Med Chem, 2017):

How the values were obtained:
Mus musculus [1] = test: Anesthetic activity in iv dosed ICR mouse assessed as dose required to produce 10 min of anesthesia administered 7 to 8 doses at 10 secs for each dose; format: functional
[2] = Toxicity in iv dosed ICR mouse administered 7 to 8 doses at 10 secs for each dose; format: organism-based; details: in vivo
Mus musculus [3] = test: Anesthetic activity in iv dosed ICR mouse assessed as recovery time of righting reflex by measuring the ability to grip and climb a steel frame and ambulated normally administered 7 to 8 doses at 10 secs for each dose; format: functional
Mus musculus [4] = test: Anesthetic activity in iv dosed ICR mouse assessed as onset time for loss of righting reflex administered 7 to 8 doses at 10 secs for each dose; format: functional
Mus musculus [5] = test: Anesthetic activity in iv dosed ICR mouse assessed as loss of righting reflex administered 7 to 8 doses at 10 secs for each dose; format: functional
Mus musculus [6] = test: Anesthetic activity in iv dosed ICR mouse assessed as anesthetic duration time administered 7 to 8 doses at 10 secs for each dose; format: functional
Mus musculus [7] = test: Anesthetic activity in mouse model assessed as loss of righting reflex; format: functional
[8] = Therapeutic index, ratio of LD50 for toxicity in mouse to ED50 for anesthetic effect in mouse
Rattus norvegicus [9] = species on record: Rattus norvegicus; test: Displacement of [35S]TBPS from GABAA receptor in Wistar rat cerebral cortex membranes after 3 hrs by scintillation counting method; details: Membrane
Rattus norvegicus [10] = species on record: Rattus norvegicus; test: Displacement of [35S]TBPS from GABAA receptor in Wistar rat cerebral cortex membranes at 10 uM after 3 hrs by scintillation counting method; details: Membrane
Rattus norvegicus [11] = species on record: Rattus norvegicus; details: in vivo, iv, 1 mg/kg
Rattus norvegicus [12] = test: Cmax in Sprague-Dawley rat at 1 mg/kg, iv by LC-MS/MS analysis; format: ADME, organism-based; parameters: dose 1 mg/kg, route intravenous; details: in vivo
[13] = Volume of distribution at steady state in Sprague-Dawley rat at 1 mg/kg, iv by LC-MS/MS analysis; format: ADME, organism-based; details: in vivo, read-out: Vdss
Rattus norvegicus [14] = species on record: Rattus norvegicus; test: Displacement of [35S]TBPS from GABAA receptor in Wistar rat cerebral cortex membranes at 1 uM after 3 hrs by scintillation counting method; details: Membrane
[15] = Clearance in Sprague-Dawley rat at 1 mg/kg, iv by LC-MS/MS analysis; format: ADME, organism-based; details: in vivo
Rattus norvegicus [16] = test: Half life in Sprague-Dawley rat at 1 mg/kg, iv by LC-MS/MS analysis; format: ADME, organism-based; details: in vivo
[17] = Toxicity in mouse; format: organism-based; details: in vivo

| SMILES | Activity (Mus musculus [1]) [mg/kg] | LD50 at 10 s [2] [mg/kg] | Time (Mus musculus [3]) [s] | Time (Mus musculus [4]) [s] | ED50 (Mus musculus [5]) [mg/kg] | Time (Mus musculus [6]) [s] | ED50 (Mus musculus [7]) [mg/kg] | Ratio LD50/ED50 [8] | inhibition (Rattus norvegicus [9]) | inhibition (Rattus norvegicus [10]) [%] | AUCt (Rattus norvegicus [11]) [ng·h/mL] | Cmax (Rattus norvegicus [12]) [ng/mL] | Vd [13] [L/kg] | inhibition (Rattus norvegicus [14]) [%] | clearance [15] [mL/min/kg] | t1/2 (Rattus norvegicus [16]) [min] | LD50 [17] [mg/kg] |
| --- | --- | --- | --- | --- | --- | --- | --- | --- | --- | --- | --- | --- | --- | --- | --- | --- | --- |
| CC(c1ccccc1O)C1CC1 (racemic) | 30 | 64.8 | 329.6 | <10 | 14 | 598 |  |  |  |  |  |  |  |  |  |  |  |
| C[C@H](c1cccc([C@@H](C)C2CC2)c1OCOP(=O)([O-])[O-])C1CC1.[Na+].[Na+] |  |  |  |  |  |  | 94.7 | 2.9 |  |  |  |  |  |  |  |  |  |
| CC(c1cccc(C(C2CC2)C2CC2)c1O)C1CC1 (racemic) | 20 | 98.2 | 326.5 | <10 | 9.8 | 761.33 |  |  |  |  |  |  |  |  |  |  |  |
| CC(C)c1cccc(C(C)C)c1O [PROPOFOL] | 25 |  | 50 | <10 |  | 303.2 |  |  | Dose-dependent effect | 10 | 76.9 | 384 | 5.23 |  |  |  |  |
| CC(C)c1cccc(C(C)C2CCC2)c1O (racemic) |  | 40 | 46 | 43.5 |  | 364 |  |  |  |  |  |  |  |  |  |  |  |
| C[C@H](c1cccc([C@H](C)C2CC2)c1O)C1CC1 | 20 | 43.6 | 24.5 | <10 | 5.9 | 492.17 |  |  | Dose-dependent effect | 78 |  |  |  | -5 |  |  |  |
| CC[C@H](C)c1cccc([C@H](C)C2CC2)c1O | 20 | 65.4 | 363.67 | <10 |  | 545 |  |  | Dose-dependent effect | 34 |  |  |  | -9 |  |  |  |
| CC[C@@H](C)c1cccc([C@@H](C)C2CC2)c1O | 4 | 8.3 | 192.33 | <10 | 1.3 | 418 |  |  | Dose-dependent effect | 63 |  |  |  | -1 |  |  |  |
| CCc1cccc(C(C)C2CC2)c1O (racemic) |  | 57.1 | 226.57 | <10 | 7.7 | 409.57 |  |  |  |  |  |  |  |  |  |  |  |
| CCC(c1cccc(C(C)C)c1O)C1CC1 (racemic) |  | 53.2 | 50.38 | 13.6 | 6.2 | 523.57 |  |  |  |  |  |  |  |  |  |  |  |
| CC(C)c1cccc(C(C)C2CC2)c1O (racemic) | 10 |  | 78 | <10 |  | 518.5 |  |  | Dose-dependent effect | 3 |  |  |  |  |  |  |  |
| CC[C@@H](C)c1cccc([C@H](C)C2CC2)c1O | 7.5 | 14.3 | 391.29 | <10 | 2 | 471.88 |  |  | Dose-dependent effect | 87 | 78.1 | 575 | 3.23 | 23 | 208 | 22 |  |
| CCC(C)c1cccc(C(C)C2CC2)c1O (racemic) | 20 |  | 130.71 | <10 |  | 418.14 |  |  | Dose-dependent effect | 74 |  |  |  | -3 |  |  |  |
| Cc1cccc(C(C)C2CC2)c1O (racemic) |  | 54.9 | 122 | <10 | 7.4 | 198.33 |  |  |  |  |  |  |  |  |  |  |  |
| CC[C@@H](C)c1cccc([C@H](C)CC)c1O | 10 | 23.8 | 39.83 | 18 | 2.69 | 459.83 |  |  | Dose-dependent effect | 29 |  |  |  | 0 |  |  |  |
| C[C@H](c1cccc([C@H](C)C2CC2)c1OCOP(=O)([O-])[O-])C1CC1.[Na+].[Na+] |  |  |  |  |  |  | 35.8 | 4 |  |  |  |  |  |  |  |  |  |
| CC(C)c1cccc(C(C2CC2)C2CC2)c1O | 50 | > 100 | 220.17 | <10 |  | 2616.4 |  |  |  |  |  |  |  |  |  |  |  |

| SMILES | Activity (Mus musculus [1]) [mg/kg] | LD50 at 10 s [2] [mg/kg] | Time (Mus musculus [3]) [s] | Time (Mus musculus [4]) [s] | ED50 (Mus musculus [5]) [mg/kg] | Time (Mus musculus [6]) [s] | ED50 (Mus musculus [7]) [mg/kg] | Ratio LD50/ED50 [8] | inhibition (Rattus norvegicus [9]) | inhibition (Rattus norvegicus [10]) [%] | AUCt (Rattus norvegicus [11]) [ng·h/mL] | Cmax (Rattus norvegicus [12]) [ng/mL] | Vd [13] [L/kg] | inhibition (Rattus norvegicus [14]) [%] | clearance [15] [mL/min/kg] | t1/2 (Rattus norvegicus [16]) [min] | LD50 [17] [mg/kg] |
| --- | --- | --- | --- | --- | --- | --- | --- | --- | --- | --- | --- | --- | --- | --- | --- | --- | --- |
| CC(C)c1cccc([C@H](C)C2CCC2)c1O |  |  | 89.11 | <10 |  | 443.5 |  |  |  |  |  |  |  |  |  |  |  |
| CC(c1cccc(C2(C)CC2)c1O)C1CC1 (racemic) | 45 | 40 | 306.13 | 9.5 |  | 365.75 |  |  |  |  |  |  |  |  |  |  |  |
| CC(C)c1cccc([C@@H](C)C2CCC2)c1O | 100 | 107 | 191.8 | 15.63 |  | 450.43 |  |  |  |  |  |  |  |  |  |  |  |
| CC(C)c1cccc(C(C)C2CCCC2)c1O (racemic) | 40 | 115 | 441.6 | 5 | 19.9 | 737.33 |  |  |  |  |  |  |  |  |  |  |  |
| CCC(c1cccc(C(C)C2CC2)c1O)C1CC1 (racemic) | 20 | 74.7 | 205.8 | 7.5 | 9 | 670.13 |  |  |  |  |  |  |  |  |  |  |  |
| COc1cccc(C(C)C2CC2)c1O (racemic) |  |  | 79 | <10 | 7.4 | 364.14 |  |  |  |  |  |  |  |  |  |  |  |
| CC(c1cccc(C2CC2)c1O)C1CC1 (racemic) |  | 80 | 193.63 | <10 | 14.6 | 500.67 |  |  |  |  |  |  |  |  |  |  |  |
| C[C@H](c1cccc([C@@H](C)C2CC2)c1O)C1CC1 | 40 | 149 | 150.8 | 7 | 19.5 | 567.33 |  |  | Dose-dependent effect | 35 |  |  |  |  |  |  |  |
| CC(C)c1cccc([C@@H](C)C2CC2)c1OCOP(=O)([O-])[O-].[Na+].[Na+] |  |  |  |  |  |  | 82.7 | 4.5 |  |  |  |  |  |  |  |  |  |
| CC[C@@H](C)c1cccc([C@H](C)C2CC2)c1OCOP(=O)([O-])[O-].[Na+].[Na+] |  |  |  |  |  |  | 15.9 | 4 |  |  |  |  |  |  |  |  | 63.7 |
| CC(c1cccc(C(C)C2CC2)c1O)C1CC1 (racemic) |  | > 15 | 233.83 | <10 |  | 563.63 |  |  | Dose-dependent effect | 91 |  |  |  | 13 |  |  |  |
| C[C@@H](c1cccc([C@H](C)C2CC2)c1O)C1CC1 | 5 |  | 61.67 | <10 |  | 318.43 |  |  | Dose-dependent effect | 96 | 170 | 713 | 1.92 | 64 | 95 | 31 |  |
| CC(C)c1cccc([C@@H](C)C2CC2)c1O | 30 | 50 | 168.33 | 5.71 | 7.9 | 344 |  |  | Dose-dependent effect | 9 |  |  |  | 3 |  |  |  |
| CC[C@H](C)c1cccc([C@H](C)C2CC2)c1OCOP(=O)([O-])[O-].[Na+].[Na+] |  |  |  |  |  |  | 24.3 | 3.8 |  |  |  |  |  |  |  |  | 91.8 |
| CC[C@H](C)c1cccc([C@@H](C)C2CC2)c1O | 10 |  | 224 | <10 |  | 643.4 |  |  | Dose-dependent effect | 47 |  |  |  | 5 |  |  |  |
| CC(C)c1cccc([C@H](C)C2CC2)c1O [CIPEPOFOL] | 4.8 |  | 64.8 | 21.86 |  | 313.43 |  |  | Dose-dependent effect | 85 | 164 | 834 | 2.02 | 34 | 100 | 28 |  |
